Each block holds one molecule with its values, some of them ahead of it.
System: alpha-MyHC
Assay: alpha-MyHC cytoblot process in neonatal rat ventricular myocytes (NRVM)
Format: cell-based
Details: Table 1, NRVM, 72 hours; for EC50: alpha-MyHC cytoblot, mean ± spread; for Max Plateau: maximum of dose response fit, low control = vehicle only
Description: In vitro activity of each compound is measured using the alpha-MyHC cytoblot process. Briefly, neonatal rat ventricular myocytes (NRVM) at 120,000 cells/ml in HyQ DME/High modified culture media supplemented with 10% charcoal/dextran treated FBS, 0.1% Nutridoma-SP, 1:100 MEM non-essential amino acids, 1:50 MEM amino acids solution w/o L-Gln, 1 mM sodium pyruvate and 1:100 P/S/G, are plated on gelatin coated sterile 384-well plates (Costar 3712) at 6,000 cells per well. Cells are incubated overnight at 37° C. in 5% CO2 100% humidity. Following overnight growth the media is changed to HyQ DME/High modified culture media supplemented with 0.3% Nutridoma-SP, 1:100 MEM non-essential amino acids, 1:50 MEM amino acids solution w/o L-Gln, 1 mM sodium pyruvate and 1:100 P/S/G. Cells are then dosed with serial dilutions of each compound in DMSO. Each concentration in the dose range is dosed in quadruplicate. Dosing is done in such a way so that the final DMSO concentration was 0.44%. Compound dilutions are 3-fold with the final top concentration of 10 uM. […] Following dosing, the cells are incubated for 72 hours at 37° C. in 5% CO2 100% humidity and then processed with the cytoblot method. Briefly, cell media is aspirated and cell monolayers washed with PBS and fixed with 100% methanol for 30 minutes. Fixed cells are then blocked with PBS, 0.05% Tween-20, 1% BSA, for 1 hour. Following blocking, cells are incubated with primary alpha-MyHC-specific antibody antibody (1:30 dilution of BA-G5 hybridoma conditioned media, ATCC HB276) for 1 hour. Following incubation with the primary antibody, cells are washed with PBS, 0.05% Tween-20, 1% BSA and incubated with secondary antibody (1:1000 dilution, goat-anti-mouse HRP, Southern Biotech, 1031-05) for 1 hour. Following incubation with the secondary antibody, wells are washed and incubated in SuperSignal, West Dura HRP-luminescence substrate for 30 seconds under shaking at room temperature. Luminescence is measured using a Packard Fusion plate reader. […] RLU values are converted into per cent fraction of low control and dose responses are fitted to a sigmoidal 4-parameter equation (XLFit, IDBS) where the EC50 and Max Plateau values were extracted. […] Max Plateau is the […] maximum value determined by the dose response fit.

SMILES: CC(=O)C1=C(C)Nc2sc(C(=O)c3ccc(Cl)c(Cl)c3)c(N)c2C1c1ccc(Br)cc1 (stereo not shown) [Compound 22]
EC50: 2070 nM
Max Plateau: 174.35 ± 23.39 per cent fraction of low control

SMILES: CC(=O)C1=C(C)Nc2sc(C(=O)c3ccc(Cl)c(Cl)c3)c(N)c2C1c1ccc(CNC(=O)OC(C)(C)C)cc1 (stereo not shown) [Compound 25]
Max Plateau: 100.00 ± 0.00 per cent fraction of low control

SMILES: CC(=O)C1=C(C)Nc2sc(C(=O)c3ccccc3)c(N)c2C1C1CCCCC1 (stereo not shown) [Compound 26]
EC50: 943 nM
Max Plateau: 185.33 ± 55.04 per cent fraction of low control

SMILES: Nc1c(C(=O)c2ccccc2)sc2c1C(c1ccccc1)C(C(=O)c1ccccc1)=C(c1ccccc1)N2 (stereo not shown) [Compound 30]
Max Plateau: 100.00 ± 0.00 per cent fraction of low control

SMILES: CC(=O)C1=C(C)Nc2sc(C(=O)c3ccc(Cl)c(Cl)c3)c(N)c2C1c1cccc2c1OCO2 (stereo not shown) [Compound 31]
Max Plateau: 121.08 ± 18.32 per cent fraction of low control

SMILES: CC(=O)C1=C(C)Nc2sc(C(=O)c3ccc(Cl)c(Cl)c3)c(N)c2C1c1ccc(C(C)(C)C)cc1 (stereo not shown) [Compound 32]
Max Plateau: 100.00 ± 0.00 per cent fraction of low control

SMILES: CC(=O)C1=C(C)Nc2sc(C(=O)c3ccc(Cl)c(Cl)c3)c(N)c2C1c1cc(Cl)cc(Cl)c1 (stereo not shown) [Compound 33]
EC50: 1950 nM
Max Plateau: 143.15 ± 21.22 per cent fraction of low control

SMILES: CC(=O)C1=C(C)Nc2sc(C(=O)c3ccc(Cl)c(Cl)c3)c(N)c2C1c1ccccc1O (stereo not shown) [Compound 34]
EC50: 1250 nM
Max Plateau: 184.69 ± 15.76 per cent fraction of low control

SMILES: CC(=O)C1=C(C)Nc2sc(C(=O)c3ccc(Cl)c(Cl)c3)c(N)c2C1c1cccs1 (stereo not shown) [Compound 41]
EC50: 369 nM
Max Plateau: 178.47 ± 7.82 per cent fraction of low control

SMILES: CC(=O)C1=C(C)Nc2sc(C(=O)c3ccc(Cl)c(Cl)c3)c(N)c2C1c1ccc[nH]1 (stereo not shown) [Compound 42]
EC50: 4590 nM
Max Plateau: 160.56 ± 20.02 per cent fraction of low control

SMILES: CC(=O)C1=C(C)Nc2sc(C(=O)c3ccccc3)c(N)c2C1c1ccc(C(F)(F)F)cc1 (stereo not shown) [Compound 44]
EC50: 1720 nM
Max Plateau: 186.67 ± 11.55 per cent fraction of low control

SMILES: CC(=O)C1=C(C)Nc2sc(C(=O)c3ccc(Cl)c(Cl)c3)c(N)c2C1c1ccc(C)cc1 (stereo not shown) [Compound 45]
Max Plateau: 108.63 ± 9.14 per cent fraction of low control

SMILES: CC(C)C(=O)C1=C(C(C)C)Nc2sc(C(=O)c3ccc(Cl)c(Cl)c3)c(N)c2C1c1ccccc1 (stereo not shown) [Compound 46]
Max Plateau: 98.33 ± 4.08 per cent fraction of low control

SMILES: CC(=O)C1=C(C)Nc2sc(C(=O)c3ccc(Cl)c(Cl)c3)c(N)c2C1c1ccc(C(F)(F)F)cc1 (stereo not shown) [Compound 48]
EC50: 5110 nM
Max Plateau: 190.81 ± 37.09 per cent fraction of low control

SMILES: CC(=O)C1=C(C)Nc2sc(C(=O)c3ccc(Cl)c(Cl)c3)c(N)c2C1c1ccc(Cl)cc1Cl (stereo not shown) [Compound 52]
Max Plateau: 122.73 ± 20.55 per cent fraction of low control

SMILES: CC(=O)C1=C(C)Nc2sc(C(=O)c3ccccc3Cl)c(N)c2C1c1ccccc1 (stereo not shown) [Compound 57]
EC50: 1250 nM
Max Plateau: 246.00 ± 16.33 per cent fraction of low control

SMILES: CCC(=O)C1=C(CC)Nc2sc(C(=O)c3ccc(Cl)c(Cl)c3)c(N)c2C1c1ccccc1[N+](=O)[O-] (stereo not shown) [Compound 59]
EC50: 425 nM
Max Plateau: 152.77 ± 11.42 per cent fraction of low control

SMILES: CCC(=O)C1=C(CC)Nc2sc(C(=O)c3ccc(Cl)c(Cl)c3)c(N)c2C1c1ccccc1C(F)(F)F (stereo not shown) [Compound 60]
Max Plateau: 100.00 ± 0.00 per cent fraction of low control

SMILES: COC(=O)c1cccc(C(=O)c2sc3c(c2N)C(c2ccccc2)C(C(C)=O)=C(C)N3)c1 (stereo not shown) [Compound 62]
EC50: 361 nM
Max Plateau: 279.31 ± 67.94 per cent fraction of low control

SMILES: CC(=O)C1=C(C)Nc2sc(C(=O)c3cccc(C(=O)O)c3)c(N)c2C1c1ccccc1 (stereo not shown) [Compound 65]
Max Plateau: 100.00 ± 0.00 per cent fraction of low control

More lines, in order of falling EC50, values ahead:

EC50: 339 nM
SMILES: CC(=O)C1=C(C)Nc2sc(C(=O)c3ccc(Cl)c(Cl)c3)c(N)c2C1c1ccc(O)cc1 (stereo not shown) [Compound 23]
Max Plateau: 277.53 ± 33.46 per cent fraction of low control

EC50: 281 nM
SMILES: CC(=O)C1=C(C)Nc2sc(C(=O)c3ccccc3)c(N)c2C1c1ccc(F)cc1 (stereo not shown) [Compound 37]
Max Plateau: 227.92 ± 12.46 per cent fraction of low control

EC50: 273 nM
SMILES: CC(=O)C1=C(C)Nc2sc(C(=O)c3ccccc3)c(N)c2C1c1ccccc1F (stereo not shown) [Compound 24]
Max Plateau: 260.35 ± 43.53 per cent fraction of low control

EC50: 233 nM
SMILES: CCC(=O)C1=C(CC)Nc2sc(C(=O)c3ccccc3)c(N)c2C1c1cccnc1 (stereo not shown) [Compound 68]
Max Plateau: 175.88 ± 14.54 per cent fraction of low control

EC50: 161 nM
SMILES: CC(=O)C1=C(C)Nc2sc(C(=O)c3ccc(Cl)c(Cl)c3)c(N)c2C1c1ccc(F)cc1 (stereo not shown) [Compound 50]
Max Plateau: 190.79 ± 27.94 per cent fraction of low control

EC50: 129 nM
SMILES: CCC(=O)C1=C(CC)Nc2sc(C(=O)c3ccc(Cl)c(Cl)c3)c(N)c2C1c1cccc([N+](=O)[O-])c1 (stereo not shown) [Compound 58]
Max Plateau: 232.20 ± 56.57 per cent fraction of low control

EC50: 116 nM
SMILES: CC(=O)C1=C(C)Nc2sc(C(=O)c3ccc(Cl)c(Cl)c3)c(N)c2C1c1ccc(Cl)c(Cl)c1 (stereo not shown) [Compound 47]
Max Plateau: 173.47 ± 25.64 per cent fraction of low control

EC50: 97.1 nM
SMILES: CC(=O)C1=C(C)Nc2sc(C(=O)c3cccc(F)c3)c(N)c2C1c1ccccc1 (stereo not shown) [Compound 61]
Max Plateau: 230.65 ± 55.61 per cent fraction of low control

EC50: 86.4 nM
SMILES: CC(=O)C1=C(C)Nc2sc(C(=O)c3ccc(Cl)c(Cl)c3)c(N)c2C1c1ccccc1F (stereo not shown) [Compound 27]
Max Plateau: 220.13 ± 23.10 per cent fraction of low control

EC50: 58.1 nM
SMILES: CCC(=O)C1=C(CC)Nc2sc(C(=O)c3ccc(Cl)c(Cl)c3)c(N)c2C1c1ccccc1Cl (stereo not shown) [Compound 53]
Max Plateau: 259.43 ± 26.30 per cent fraction of low control

EC50: 51.7 nM
SMILES: CCC(=O)C1=C(CC)Nc2sc(C(=O)c3ccc(Cl)cc3Cl)c(N)c2C1c1ccccc1 (stereo not shown) [Compound 70]
Max Plateau: 191.97 ± 13.09 per cent fraction of low control

EC50: 45.2 nM
SMILES: CC(=O)C1=C(C)Nc2sc(C(=O)c3ccc(Cl)c(Cl)c3)c(N)c2C1c1cc(F)cc(F)c1 (stereo not shown) [Compound 55]
Max Plateau: 229.93 ± 37.33 per cent fraction of low control

EC50: 42.9 nM
SMILES: CCC(=O)C1=C(CC)Nc2sc(C(=O)c3ccc(Cl)c(Cl)c3)c(N)c2C1c1ccccc1C (stereo not shown) [Compound 56]
Max Plateau: 293.74 ± 50.82 per cent fraction of low control

EC50: 31.7 nM
SMILES: CCC(=O)C1=C(CC)Nc2sc(C(=O)c3ccccc3)c(N)c2C1c1c(F)cccc1F (stereo not shown) [Compound 69]
Max Plateau: 221.36 ± 15.94 per cent fraction of low control

EC50: 20.8 nM
SMILES: CCC(=O)C1=C(CC)Nc2sc(C(=O)c3ccc(Cl)c(Cl)c3)c(N)c2C1c1c(F)cccc1F (stereo not shown) [Compound 63]
Max Plateau: 230.07 ± 45.59 per cent fraction of low control

EC50: 16.1 nM
SMILES: CCC(=O)C1=C(CC)Nc2sc(C(=O)c3ccc(Cl)c(Cl)c3)c(N)c2C1c1ccccc1Cl (stereo not shown) [Compound 38]
Max Plateau: 288.93 ± 52.81 per cent fraction of low control

EC50: 15.5 nM
SMILES: CC(=O)C1=C(C)Nc2sc(C(=O)c3ccc(Cl)c(Cl)c3)c(N)c2C1c1ccc(O)cc1Cl (stereo not shown) [Compound 29]
Max Plateau: 281.88 ± 32.78 per cent fraction of low control

EC50: 14.4 nM
SMILES: CCC(=O)C1=C(CC)Nc2sc(C(=O)c3ccc(Cl)c(Cl)c3)c(N)c2C1c1c(F)cccc1Cl (stereo not shown) [Compound 40]
Max Plateau: 244.87 ± 7.92 per cent fraction of low control

EC50: 14.4 nM
SMILES: CCC(=O)C1=C(CC)Nc2sc(C(=O)c3cccc(F)c3)c(N)c2C1c1ccccc1 (stereo not shown) [Compound 49]
Max Plateau: 299.18 ± 42.31 per cent fraction of low control

EC50: 12.1 nM
SMILES: CCC(=O)C1=C(CC)Nc2sc(C(=O)c3ccccc3F)c(N)c2C1c1ccccc1 (stereo not shown) [Compound 67]
Max Plateau: 256.12 ± 53.66 per cent fraction of low control

EC50: 10.2 nM
SMILES: CCC(=O)C1=C(CC)Nc2sc(C(=O)c3cc(Cl)ccc3Cl)c(N)c2C1c1ccccc1 (stereo not shown) [Compound 64]
Max Plateau: 281.39 ± 54.54 per cent fraction of low control

EC50: 6.18 nM
SMILES: CCC(=O)C1=C(CC)Nc2sc(C(=O)c3ccc(Cl)c(Cl)c3)c(N)c2C1c1ccccc1 (stereo not shown) [Compound 36]
Max Plateau: 256.56 ± 24.93 per cent fraction of low control

EC50: 4.94 nM
SMILES: CCC(=O)C1=C(CC)Nc2sc(C(=O)c3cccc(Cl)c3)c(N)c2C1c1ccccc1 (stereo not shown) [Compound 66]
Max Plateau: 306.19 ± 54.21 per cent fraction of low control

EC50: 0.59 nM
SMILES: CCC(=O)C1=C(CC)Nc2sc(C(=O)c3ccc(Cl)c(Cl)c3)c(N)c2C1c1cccc(Cl)c1 (stereo not shown) [Compound 54]
Max Plateau: 267.44 ± 32.29 per cent fraction of low control

Reference: patent publication US20110105496A1, “Methods For The Treatment Of Myosin Heavy Chain-Mediated Conditions Using 4,7-Dihydrothieno[2,3-B]Pyridine Compounds” (priority 2005, published 2011)
